Test results from ChEMBL document CHEMBL5154738, “Design, synthesis and structural-activity relationship studies of phanginin A derivatives for regulating SIK1-cAMP/CREB signaling to suppress hepatic gluconeogenesis” (Eur J Med Chem, 2022).

Key:
[1] = Inhibition of gluconeogenesis in C57BL/6J mouse primary hepatocytes assessed as inhibition of glucagon-stimulated glucose production at 10 uM preincubated for 1.5 hrs followed by lactate and pyruvate addition and later stimulated with glucagon for 4 hrs; assay type: functional; conditions: Hepatocyte, time 5.5 hrs
[2] = Cytotoxicity against C57BL/6J mouse primary hepatocytes assessed as cell viability at 10 uM incubated for 24 hrs by MTT assay relative to control; assay type: toxicity, cell-based, Hepatocyte; conditions: read-out: Activity
[3] = Cytotoxicity against C57BL/6J mouse primary hepatocytes assessed as cell viability at 50 uM incubated for 24 hrs by MTT assay relative to control; assay type: toxicity, cell-based, Hepatocyte; conditions: read-out: Activity
[4] = Cytotoxicity against C57BL/6J mouse primary hepatocytes assessed as cell viability at 20 uM incubated for 24 hrs by MTT assay relative to control; assay type: toxicity, cell-based, Hepatocyte; conditions: read-out: Activity
[5] = Inhibition of gluconeogenesis in C57BL/6J mouse primary hepatocytes assessed as inhibition of glucagon-stimulated glucose production at 2.5 uM preincubated for 1.5 hrs followed by lactate and pyruvate addition and later stimulated with glucagon for 4 hrs; assay type: functional; conditions: Hepatocyte, time 5.5 hrs
[6] = Cytotoxicity against C57BL/6J mouse primary hepatocytes assessed as cell viability at 200 uM incubated for 24 hrs by MTT assay relative to control; assay type: toxicity, cell-based, Hepatocyte; conditions: read-out: Activity
[7] = Cytotoxicity against C57BL/6J mouse primary hepatocytes assessed as cell viability at 100 uM incubated for 24 hrs by MTT assay relative to control; assay type: toxicity, cell-based, Hepatocyte; conditions: read-out: Activity
[8] = Inhibition of gluconeogenesis in C57BL/6J mouse primary hepatocytes assessed as inhibition of glucagon-stimulated glucose production at 5 uM preincubated for 1.5 hrs followed by lactate and pyruvate addition and later stimulated with glucagon for 4 hrs; assay type: functional; conditions: Hepatocyte, time 5.5 hrs

| SMILES | inhibition at 10 µM [1] [%] | viability at 24 h, 10 µM [2] [%] | viability at 24 h, 50 µM [3] [%] | viability at 24 h, 20 µM [4] [%] | inhibition at 2.5 µM [5] [%] | viability at 24 h, 200 µM [6] [%] | viability at 24 h, 100 µM [7] [%] | inhibition at 5 µM [8] [%] |
| --- | --- | --- | --- | --- | --- | --- | --- | --- |
| COC(=O)[C@@]12CCCC3([C@H](OC)OC1)[C@H]2CC[C@H]1[C@@H](C)c2ccoc2C[C@@H]13 | 18.8 |  |  |  |  |  |  |  |
| COC(=O)[C@@]12CCCC3([C@H](O)OC1)[C@H]2CC[C@H]1[C@@H](C)[C@@H]2CCO[C@@H]2C[C@@H]13 | 41.1 |  |  |  |  |  |  |  |
| CC(=O)OCCO[C@@H]1OC[C@@]2(CO)CCCC13[C@H]2CC[C@H]1[C@@H](C)c2ccoc2C[C@@H]13 | 77.3 | 81.7 | 77.7 | 84.1 | 25.1 | 14.1 | 79.9 | 54.4 |
| COC(=O)[C@@]12CCCC3([C@H](OCCO)OC1)[C@H]2CC[C@H]1[C@@H](C)C2=CC(=O)O[C@]2(O)C[C@@H]13 | -12.3 |  |  |  |  |  |  |  |
| COC(=O)[C@@]12CCCC3([C@H](OCCCCO)OC1)[C@H]2CC[C@H]1[C@@H](C)c2ccoc2C[C@@H]13 | 92.7 | 54 | 19.8 | 27.5 | 47 | 17.6 | 18.7 | 95.8 |
| COC(=O)[C@@]12CCCC3([C@H](OCCCCCCO)OC1)[C@H]2CC[C@H]1[C@@H](C)c2ccoc2C[C@@H]13 | 81.8 | 89.3 | 28.6 | 81.5 | 33.5 | 11.4 | 11.3 | 67.2 |
| COC(=O)[C@@]12CCCC3([C@H](OCCO)OC1)[C@H]2CC[C@H]1[C@@H](C)[C@@H]2CCO[C@@H]2C[C@@H]13 | 15.9 |  |  |  |  |  |  |  |
| C[C@H]1c2ccoc2C[C@H]2[C@H]1CC[C@@H]1C23CCC[C@]1(C(=O)O)CO[C@H]3OCCO | 24.3 |  |  |  |  |  |  |  |
| COC(=O)[C@@]12CCCC3([C@H](OCCOCCOCCO)OC1)[C@H]2CC[C@H]1[C@@H](C)c2ccoc2C[C@@H]13 | 97.1 | 40.5 | 12.1 | 23.4 | 47.2 | 8.1 | 10.3 | 97.4 |
| CC(=O)OC[C@@]12CCCC3([C@H](OCCO)OC1)[C@H]2CC[C@H]1[C@@H](C)c2ccoc2C[C@@H]13 | 82.7 | 83.2 | 85 | 78.1 | -2.1 | 14.2 | 92.4 | 32.1 |
| CCCCO[C@@H]1OC[C@@]2(C(=O)OC)CCCC13[C@H]2CC[C@H]1[C@@H](C)c2ccoc2C[C@@H]13 | 36.2 |  |  |  |  |  |  |  |
| CCO[C@@H]1OC[C@@]2(C(=O)OC)CCCC13[C@H]2CC[C@H]1[C@@H](C)c2ccoc2C[C@@H]13 | 24.9 |  |  |  |  |  |  |  |
| C[C@H]1c2ccoc2C[C@H]2[C@H]1CC[C@@H]1C23CCC[C@]1(CO)CO[C@H]3OCCO | 71.1 | 74.8 | 63.9 | 69.6 | 41.4 | 13.2 | 42.2 | 69.4 |
| COC(=O)[C@]12CCC[C@]3(COC1)[C@H]1C[C@H]4OCC[C@H]4[C@H](C)[C@@H]1CC[C@@H]23 | 36.3 |  |  |  |  |  |  |  |
| COC(=O)[C@@]12CCC[C@]3(C(=O)OC1)[C@H]1Cc4occc4[C@H](C)[C@@H]1CC[C@@H]23 | 41.2 |  |  |  |  |  |  |  |
| COC(=O)[C@@]12CCC[C@]3(COC1)[C@H]1Cc4occc4[C@H](C)[C@@H]1CC[C@@H]23 | 52 |  |  |  |  |  |  |  |
